The values below come from EP0341318A1, “NOVEL PLATINUM (II) COMPLEX, PROCESS FOR PREPARING THE SAME, AND THERAPEUTIC AGENT FOR MALIGNANT TUMOR” (TORAY INDUSTRIES, INC., priority 1987, dated 1989).

Values joined by “and” are separate entries in the source; they are usually repeats but may differ in a detail not shown here. Identical values can stand only once.

One data set relates to L1210 murine leukemia. Briefly: Antitumor activity against L1210 murine leukemia in mice. To be noted: for Survival days (mean±SD): administered on 1st, 5th and 9th days after tumor inoculation, CDF1 mice, 10^5 L1210 cells i.p.; for T/C (%) / Survival rate: days 1, 5, 9; for T/C (%): L1210 in CDF1 mice; for Survival rate: Number of 30 days survival mice / group. The class given is in vivo, CDF1 mice. As to the method: L1210 murine leukemia cells which were subcultured in DBA/2 mouse were inoculated intraperitoneally into CDF1 mice at 10^5 cells/mouse. Each experimental group was composed of 6-10 mice (male, 6-weeks old). Each test compound was administered three times, i.e., on the lst, 5th and 9th days after tumor inoculation. CBDCA and CDDP were used as control drugs in this experiment. Each compound was dissolved or suspended in 0.05% Tween 80 solution and administered in mice. Antitumor activity against L1210 leukemia was determined by T/C value calculated by the following equation and by the number of 30 days survival mice. [formula]
The antitumor activities of the compounds Nos. 3 to 5 of this invention were determined in the same way as in Example 6.

A further data set relates to Slc:ICR mice. Briefly: Acute toxicity test on mice. The class given is in vivo. To be noted: intraperitoneal injection, Slc:ICR mice (male, 5 weeks old), mortality on the 14th day. On the procedure:
Each test compound was intraperitoneally injected into Slc:ICR mice (male, 5 weeks old). Each compound was formulated into a solution or suspension in a 0.05% Tween 80 solution. The LD50 value was calculated from mortality found on the 14th day after said injection.

For the compound “2-(2-(2-Methoxyethoxy)ethoxy)ethyl 2,2-dimethyl-6,6,7,7,8,8,8-heptafluoro-3,5-dioxooctanoate- hydroxo(trans-l-1,2-diamino-cyclohexane)platinum(II) [Compound No. 4]”, the “Survival days (mean±SD)” value worked out at 10.7 ± 2.7 days in the data set with L1210 murine leukemia (Dose 1 mg/kg); 20.8 ± 7.8 days in the data set with L1210 murine leukemia (Dose 10 mg/kg); 23.7 ± 5.9 days with L1210 murine leukemia (Dose 25 mg/kg); 11.5 ± 9.5 days with L1210 murine leukemia (Dose 50 mg/kg); 2.0 ± 0.0 days in the data set with L1210 murine leukemia (Dose 100 mg/kg); 2.0 ± 0.0 days in the data set with L1210 murine leukemia (Dose 200 mg/kg). Besides, the “T/C (%)” value in the data set on L1210 murine leukemia (Dose 1 mg/kg) was 127%; in the data set with L1210 murine leukemia (Dose 10 mg/kg) it was 248%; with L1210 murine leukemia (Dose 25 mg/kg), 282%; in the data set on L1210 murine leukemia (Dose 50 mg/kg), 137%; in the data set with L1210 murine leukemia (Dose 100 mg/kg) it was 24%; in the data set on L1210 murine leukemia (Dose 200 mg/kg), 24%. For the same compound, the Survival rate is 0/6 in the data set with L1210 murine leukemia (dose 1 mg/kg); 2/6 in the data set with L1210 murine leukemia (dose 10 mg/kg); 2/6 in the data set with L1210 murine leukemia (dose 25 mg/kg); 1/6 in the data set on L1210 murine leukemia (dose 50 mg/kg); 0/6 with L1210 murine leukemia (dose 100 mg/kg); 0/6 in the data set with L1210 murine leukemia (dose 200 mg/kg).
As to “3-Heptafluorobutyryl-D-camphor-hydroxo(trans-l-1,2-diaminocyclohexane)platinum(II) [Compound No. 5]”, the “Survival days (mean±SD)” value in the data set on L1210 murine leukemia (Dose 1 mg/kg) turned out to be 9.0 ± 0.6 days; in the data set on L1210 murine leukemia (Dose 10 mg/kg), 14.7 ± 2.3 days; with L1210 murine leukemia (Dose 25 mg/kg), 19.8 ± 6.1 days; in the data set on L1210 murine leukemia (Dose 50 mg/kg), 15.3 ± 7.1 days; with L1210 murine leukemia (Dose 100 mg/kg), 4.2 ± 1.0 days; in the data set with L1210 murine leukemia (Dose 200 mg/kg), 2.0 ± 0.0 days. Further, the “T/C (%)” value worked out at 111% in the data set on L1210 murine leukemia (Dose 1 mg/kg); 181% with L1210 murine leukemia (Dose 10 mg/kg); 244% in the data set with L1210 murine leukemia (Dose 25 mg/kg); 189% in the data set on L1210 murine leukemia (Dose 50 mg/kg); 52% in the data set with L1210 murine leukemia (Dose 100 mg/kg); 25% in the data set on L1210 murine leukemia (Dose 200 mg/kg). Further, the Survival rate in the data set on L1210 murine leukemia (dose 1 mg/kg) is 0/6; in the data set with L1210 murine leukemia (dose 10 mg/kg), 0/6; in the data set with L1210 murine leukemia (dose 25 mg/kg) it was 1/6; in the data set with L1210 murine leukemia (dose 50 mg/kg) it was 0/6; in the data set with L1210 murine leukemia (dose 100 mg/kg), 0/6; with L1210 murine leukemia (dose 200 mg/kg), 0/6. The LD50 – broadly, the dose expected to kill half of the subjects tested – in the data set with Slc:ICR mice turned out to be 47 mg/kg.
On to `N.N.[Cl][Pt][Cl]` [CDDP, cis-diamminedichloroplatinum(II), reference compound], for which the “Survival days (mean±SD)” value was 14.7 ± 2.7 days and 12.0 ± 3.0 days and 13.2 ± 2.9 days with L1210 murine leukemia (Dose 2.5 mg/kg, 2.5 mg/kg); 18.8 ± 4.3 days and 14.3 ± 2.9 days and 13.7 ± 1.5 days and 16.0 ± 2.8 days in the data set on L1210 murine leukemia (Dose 5.0 mg/kg, 5 mg/kg); 18.7 ± 3.1 days and 15.5 ± 2.1 days and 14.2 ± 2.4 days in the data set with L1210 murine leukemia (Dose 7.5 mg/kg, 7.5 mg/kg). In addition, the “T/C (%)” value is 181% and 143% and 163% in the data set with L1210 murine leukemia (Dose 2.5 mg/kg); 232% and 170% and 163% and 198% in the data set with L1210 murine leukemia (Dose 5.0 mg/kg); 231% and 185% and 175% in the data set with L1210 murine leukemia (Dose 7.5 mg/kg). Besides, the Survival rate in the data set with L1210 murine leukemia (dose 2.5 mg/kg), in the data set with L1210 murine leukemia (dose 5.0 mg/kg) and with L1210 murine leukemia (dose 7.5 mg/kg) was 0/6 each time.
On to `CC(C)(C)C(=O)C=C([O-])C(F)(F)C(F)(F)C(F)(F)F.N[C@@H]1CCCC[C@H]1N.[OH-].[Pt+2]` [Compound No. 1, 2,2-Dimethyl-6,6,7,7,8,8,8-heptafluoro-3,5-octanedione-hydroxo(trans-I-1,2-diaminocyclohexane)platinum(II)], for which the “Survival days (mean±SD)” value amounted to 10.5 ± 1.2 days in the data set with L1210 murine leukemia (Dose 1 mg/kg); 29.5 ± 1.2 days in the data set on L1210 murine leukemia (Dose 10 mg/kg); 29.7 ± 0.5 days with L1210 murine leukemia (Dose 25 mg/kg); 24.0 ± 10.3 days with L1210 murine leukemia (Dose 50 mg/kg); 5.2 ± 1.9 days in the data set with L1210 murine leukemia (Dose 100 mg/kg); 1.7 ± 0.5 days with L1210 murine leukemia (Dose 200 mg/kg). The “T/C (%)” value in the data set with L1210 murine leukemia (Dose 1 mg/kg) is recorded as 130%; in the data set with L1210 murine leukemia (Dose 10 mg/kg), 364%; in the data set on L1210 murine leukemia (Dose 10 mg/kg, listed as compound No. 1, 10 mg/kg) it was “greater than 360%”; in the data set with L1210 murine leukemia (Dose 25 mg/kg) it was 367%; with L1210 murine leukemia (Dose 25 mg/kg, listed as compound No. 1, 25 mg/kg) it was “greater than 360%”; with L1210 murine leukemia (Dose 50 mg/kg) it was 296%. Also, the results for the “T/C (%)” value with L1210 murine leukemia (Dose 100 mg/kg) and with L1210 murine leukemia (Dose 200 mg/kg) were 64% and 21%, respectively. For the same compound, the Survival rate in the data set with L1210 murine leukemia (dose 1 mg/kg) is given as 0/6; in the data set with L1210 murine leukemia (dose 10 mg/kg) it was 4/6; in the data set on L1210 murine leukemia (dose 25 mg/kg), 4/6; with L1210 murine leukemia (dose 50 mg/kg), 4/6; with L1210 murine leukemia (dose 100 mg/kg), 0/6; in the data set on L1210 murine leukemia (dose 200 mg/kg), 0/6. Besides, the antitumor activity entry in the data set on L1210 murine leukemia (comparison in words with control drugs, L1210 in mice) is “higher than CDDP and CBDCA”. This compound also registered a 50% lethal dose (LD50) with Slc:ICR mice of 35 mg/kg.
For `N[C@@H]1CCCC[C@H]1N.O=C(O)CC(=O)C=C([O-])C(F)(F)C(F)(F)C(F)(F)F.[OH-].[Pt+2]` [Compound No. 3, 6,6,7,7,8,8,8-Heptafluoro-3,5-dioxooctanoic acid hydroxo-(trans-l-1,2-diaminocyclohexane)platinum(II)], the “Survival days (mean±SD)” value in the data set with L1210 murine leukemia (Dose 1 mg/kg) is 9.7 ± 1.4 days; with L1210 murine leukemia (Dose 10 mg/kg), 9.7 ± 1.4 days; in the data set on L1210 murine leukemia (Dose 25 mg/kg) it was 11.0 ± 0.9 days; in the data set on L1210 murine leukemia (Dose 50 mg/kg), 11.8 ± 0.8 days; with L1210 murine leukemia (Dose 100 mg/kg) it was 14.0 ± 2.7 days; in the data set with L1210 murine leukemia (Dose 200 mg/kg) it was 11.2 ± 3.7 days. Also, the “T/C (%)” value with L1210 murine leukemia (Dose 1 mg/kg) is listed as 115%; with L1210 murine leukemia (Dose 10 mg/kg), 115%; with L1210 murine leukemia (Dose 25 mg/kg) it was 131%; with L1210 murine leukemia (Dose 50 mg/kg) it was 140%; with L1210 murine leukemia (Dose 100 mg/kg), 167%; in the data set on L1210 murine leukemia (Dose 200 mg/kg), 133%. The Survival rate in the data set on L1210 murine leukemia (dose 1 mg/kg), with L1210 murine leukemia (dose 10 mg/kg), with L1210 murine leukemia (dose 25 mg/kg), with L1210 murine leukemia (dose 50 mg/kg), with L1210 murine leukemia (dose 100 mg/kg) and in the data set with L1210 murine leukemia (dose 200 mg/kg) was 0/6 each time. Also, the LD50 with Slc:ICR mice was above 200 mg/kg.
For the compound “cis-diammine-1,1-cyclobutanedicarboxylate platinum(II) [CBDCA, reference compound]”, the “Survival days (mean±SD)” value in the data set with L1210 murine leukemia (Dose 1 mg/kg) was determined as 8.3 ± 0.5 days; in the data set with L1210 murine leukemia (Dose 10 mg/kg), 9.3 ± 0.5 days; in the data set with L1210 murine leukemia (Dose 25 mg/kg) it was 10.1 ± 1.3 days; with L1210 murine leukemia (Dose 50 mg/kg), 13.1 ± 2.3 days; with L1210 murine leukemia (Dose 100 mg/kg), 14.1 ± 3.7 days; in the data set with L1210 murine leukemia (Dose 200 mg/kg), 9.6 ± 0.7 days. Also, the “T/C (%)” value with L1210 murine leukemia (Dose 1 mg/kg) is listed as 98%; with L1210 murine leukemia (Dose 10 mg/kg) it was 109%; in the data set on L1210 murine leukemia (Dose 25 mg/kg) it was 119%; in the data set with L1210 murine leukemia (Dose 50 mg/kg), 156%; in the data set with L1210 murine leukemia (Dose 100 mg/kg), 166%; in the data set with L1210 murine leukemia (Dose 200 mg/kg) it was 113%. For the same compound, the Survival rate with L1210 murine leukemia (dose 1 mg/kg), with L1210 murine leukemia (dose 10 mg/kg), in the data set with L1210 murine leukemia (dose 25 mg/kg), with L1210 murine leukemia (dose 50 mg/kg), in the data set on L1210 murine leukemia (dose 100 mg/kg) and in the data set on L1210 murine leukemia (dose 200 mg/kg) was 0/10 throughout.
